What all share (assay type): cell-based, Human
The subject of one data set is TNF-α. Nature of the data set: TNF-α in culture supernatant of LPS-activated THP-1 cells (sandwich ELISA). To be noted: THP-1 cells pre-treated 2 h with compound, 1 μg/ml LPS, supernatant at 24 h, ELISA in duplicate. How it is done:
The blocking effect of compounds on cytokines expression (FIG. 2) induced by LPS in monocytic cell lines was then assessed. THP-1 cells were pre-treated with compounds for 2 h and activated with 1 μg/ml LPS. Culture supernatants were collected in 24 h and the TNF-α concentrations were measured using sandwich ELISA. Measurements were done in duplicate. […] Therefore the compounds work to suppress inflammatory response and are potent anti-inflammatory compounds.

The next data set deals with MMP-9. As to the kind of experiment: MMP-9 expression in LPS-stimulated THP-1 cells (gelatin zymography). The note with it: THP-1 cells pre-treated 2 h with 5, 10 and 20 μg/ml compound, then 1 μg/ml LPS, supernatant at 24 h; MMP-2 internal control. As for the experimental part: Several of the compounds were tested for pharmaceutical activity against two well known inflammatory mediators—MMP-9 and TNF-α. Compounds (1), (2), (3), and (4), were tested. An inflammatory reaction is stimulated with LPS and MMP-2 is used as an internal gene expression control.
The inhibitory effect of flavonoid glycoside compounds on MMP-9 expression (FIG. 1) was assayed in THP-1 cells stimulated with LPS. In panels A, C, E and G; THP-1 cells were pre-treated with 5, 10 and 20 μg/ml of the compound specified for 2 h. After pre-treatment with the relevant compound, the cells were then stimulated with 1 μg/ml LPS. The culture supernatants were collected 24 h after activation and subjected to substrate gel electrophoresis (gelatin zymography) and staining with Coomassie brilliant blue.

Another data set relates to THP-1 cells. Nature of the data set: THP-1 cell viability, MTS assay. To be noted: THP-1 cells treated with the compound as in the MMP-9 test. As for the experimental part: In panels B, D, F and H; THP-1 cells were treated with the compound in A, C, E and G, and cell viability was tested with MTS assay.

As to `CCC(C)C(CCC(C)CCCC(C)CCCC(C)C)OC1(CO)COC(COc2c(-c3ccc(OC)cc3)oc3cc(O)cc(O)c3c2=O)C(O)C1O` [Compound (2), 3,5,7-trihydroxy-4′-methoxyflavone-3β-D-glucopyranosyl (4″-13′″)-2′″,6′″,10′″,14′″-tetramethyl hexadecane], in the data set with TNF-α, the TNF-α production result was “inhibited”. Besides, the “inhibition of MMP-9 expression” value in the data set on MMP-9 is “inhibits MMP-9 expression in a dose dependant manner”. Moreover, the cell viability result in the data set with THP-1 cells is listed as “no negative impact on cell viability”.
Taken in the same sequence, the figures for `C=C(CCC=C(C)C)CC/C=C(\C)CC(=O)OCC1OC(Oc2ccc3c(c2)OC(c2ccc(OC)c(OC)c2)CC3=O)C(O)C(O)C1O` (stereo not drawn) [Compound (3)] were “inhibited”, “inhibits MMP-9 expression in a dose dependant manner” and “no negative impact on cell viability”.
Regarding `C/C=C(\C)[C@@H](CCC(C)CCCC(C)CCCC(C)C)OC1C(CO)OC(Oc2cc(O)c3c(=O)c(O)c(-c4ccc(OC)c(OC)c4)oc3c2)C(O)C1O` (stereo partly drawn) [Compound (1), 3,5,7-trihydroxy-3′,4′-dimethoxyflavone-7β-D-glucopyranosyl(4″-13′″)2′″,6′″,10′″,14′″-tetramethyl hexadec-14-ene], in the data set on TNF-α, the TNF-α production entry was “inhibited”. In addition, the “inhibition of MMP-9 expression” value with MMP-9 is reported as “inhibits MMP-9 expression in a dose dependant manner”. Besides, in the data set on THP-1 cells, the cell viability result is listed as “no negative impact on cell viability”.

Source of the values: patent publication US8207313B2, “Natural products from Vinca” (William Marsh Rice University, priority 2007, dated 2012).
